From PubChem BioAssay AID1053140 (Broad Institute, 2014)
The source made the active and inactive calls.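 Rule for the calls: active = cell killing, with AC50 under 10 µM and within twice the top valid dose; inactive = effect in the opposite direction, and the rest.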

System: A549 viability, CellTiter-Glo ATP luminescence, 72 h
Assay: A549 cell cytotoxicity, dose response, cytotoxicity control, ATP luminescence, dry powder, set 16 (AID 1053140)
Conditions: not given
For `CO[C@H]1CN(C)C(=O)c2cc(Nc3ncccn3)ccc2OC[C@H](C)N(Cc2ccc(-c3ccccn3)cc2)C[C@@H]1C`, the AC50 was > 100 µM (inactive). With `CO[C@H]1CN(C)C(=O)c2cc(NC(=O)C(C)C)ccc2OC[C@H](C)N(Cc2ccc(-c3ccccn3)cc2)C[C@@H]1C` the AC50 was > 100 µM (inactive). For `CO[C@H]1CN(C)C(=O)c2cc(N)ccc2OC[C@H](C)N(Cc2ccc(-c3ccccn3)cc2)C[C@@H]1C`, the AC50 was > 100 µM (inactive). In the case of `CO[C@H]1CN(C)C(=O)c2cc(NC(=O)NC(C)C)ccc2OC[C@H](C)N(C(=O)Nc2ccc(-c3ccccn3)cc2)C[C@@H]1C`, the AC50 is reported as > 100 µM (inactive). `CO[C@H]1CN(C)C(=O)c2cc(Nc3c(NC4CCCCC4)c(=O)c3=O)ccc2OC[C@H](C)N(Cc2ccc(-c3ccccn3)cc2)C[C@@H]1C` gave an AC50 of 36.8 µM. In the case of `CO[C@H]1CN(C)C(=O)c2cc(Nc3c(NC4CC4)c(=O)c3=O)ccc2OC[C@H](C)N(Cc2ccc(-c3ccccn3)cc2)C[C@@H]1C`, the AC50 is reported as 25.2 µM. In the case of `CO[C@H]1CN(C)C(=O)c2cc(Nc3c(NC4CCCC4)c(=O)c3=O)ccc2OC[C@H](C)N(Cc2ccc(-c3ccccn3)cc2)C[C@@H]1C`, the AC50 is reported as > 100 µM (inactive). Molecule `CCC(CC)Nc1c(Nc2ccc3c(c2)C(=O)N(C)C[C@H](OC)[C@@H](C)CN(Cc2ccc(-c4ccccn4)cc2)[C@@H](C)CO3)c(=O)c1=O` has an AC50 of 43.7 µM. With `CO[C@H]1CN(C)C(=O)c2cc(NC(=O)NC(C)C)ccc2OC[C@H](C)N(Cc2ccc(-c3cncnc3)cc2)C[C@@H]1C` the AC50 was > 100 µM (inactive). With `CO[C@H]1CN(C)C(=O)c2cc(NC(=O)NC(C)C)ccc2OC[C@H](C)N(Cc2ccccn2)C[C@@H]1C` the AC50 was > 100 µM (inactive). Work on `CO[C@H]1CN(C)C(=O)c2cc(Nc3c(NC(C)C)c(=O)c3=O)ccc2OC[C@H](C)N(Cc2ccc(-c3ccccn3)cc2)C[C@@H]1C` yielded an AC50 of 45.3 µM. For `CO[C@H]1CN(C)C(=O)c2cc(NC(=O)OC(C)C)ccc2OC[C@H](C)N(Cc2ccc(-c3ccccn3)cc2)C[C@@H]1C`, the AC50 was > 100 µM (inactive). `CO[C@H]1CN(C)C(=O)c2cc(NC(=O)NC(C)C)ccc2OC[C@H](C)N(Cc2ccc(-c3cccnc3)cc2)C[C@@H]1C` gave an AC50 of 45.7 µM.

System: not listed separately
Assay: as above
Conditions: A549 viability, CellTiter-Glo ATP luminescence, 72 h; at 26 µM (top of the series)
For `CCCNC(=O)Nc1ccc2c(c1)OC[C@H](C)N(Cc1ccccc1)C[C@H](C)[C@@H](OC)CN(C)C2=O`, the activity change, negative = cytotoxic was 0.334% (inactive). In the case of `CCCC(=O)Nc1ccc2c(c1)OC[C@H](C)N(Cc1ccc(-c3ccccn3)cc1)C[C@H](C)[C@@H](OC)CN(C)C2=O`, the activity change, negative = cytotoxic is reported as 6.08% (inactive). In the case of `CO[C@H]1CN(C)C(=O)c2ccc(NC(=O)NC(C)C)cc2OC[C@H](C)N(Cc2ccc(-c3ccccn3)cc2)C[C@@H]1C`, the activity change, negative = cytotoxic is reported as 3.22% (inactive). For `CCCNC(=O)Nc1ccc2c(c1)OC[C@H](C)N(Cc1ccc(-c3ccccn3)cc1)C[C@H](C)[C@@H](OC)CN(C)C2=O`, the activity change, negative = cytotoxic was -9.23% (inactive). For `CCCC(=O)Nc1ccc2c(c1)OC[C@H](C)N(Cc1ccccc1)C[C@H](C)[C@@H](OC)CN(C)C2=O`, the activity change, negative = cytotoxic was -0.093% (inactive). For `CO[C@H]1CN(C)C(=O)c2ccc(NC(=O)NC(C)C)cc2OC[C@H](C)N(Cc2ccccc2)C[C@@H]1C`, the activity change, negative = cytotoxic was 4.59% (inactive).

Same assay, conditions: A549 viability, CellTiter-Glo ATP luminescence, 72 h; at 50 µM (top of the series)
For `CO[C@H]1CN(C)C(=O)c2cc(NC(=O)NC(C)C)ccc2OC[C@H](C)N(Cc2ccc(F)cc2)C[C@@H]1C`, the activity change, negative = cytotoxic was -3.88% (inactive). In the case of `CO[C@H]1CN(C)C(=O)c2cc(NC(=O)NC(C)C)ccc2OC[C@H](C)N(C(=O)c2ccccc2)C[C@@H]1C`, the activity change, negative = cytotoxic is reported as -11.4% (inactive). In the case of `CO[C@H]1CN(C)C(=O)c2cc(NC(=O)NC(C)C)ccc2OC[C@H](C)N(Cc2cccnc2)C[C@@H]1C`, the activity change, negative = cytotoxic is reported as 6.13% (inactive). In the case of `CO[C@H]1CN(C)C(=O)c2cc(NC(=O)NC(C)C)ccc2OC[C@H](C)N(C(=O)c2ccc(-c3ccccn3)cc2)C[C@@H]1C`, the activity change, negative = cytotoxic is reported as -11.3% (inactive). In the case of `CO[C@H]1CN(C)C(=O)c2cc(NC(=O)NC(C)C)ccc2OC[C@H](C)N(Cc2ccncc2)C[C@@H]1C`, the activity change, negative = cytotoxic is reported as 4.36% (inactive). In the case of `CO[C@H]1CN(C)C(=O)c2cc(NC(=O)NC(C)C)ccc2OC[C@H](C)N(Cc2cncnc2)C[C@@H]1C`, the activity change, negative = cytotoxic is reported as -6.71% (inactive). With `CO[C@H]1CN(C)C(=O)c2cc(NC(=O)NC(C)C)ccc2OC[C@H](C)NC[C@@H]1C` the activity change, negative = cytotoxic was -2.18% (inactive).
